Patent US20250195482A1, “METHOD AND COMPOSITION FOR IMPROVING HEALTH OF HAIR FOLLICLES, SCALP OR HAIR OF MAMMALS” (NANJING NUTRABUILDING BIO-TECH CO., LTD., priority 2022, published 2025)

Assays:
Format in all cases: cell-based
Staphylococcus aureus = assay: Growth inhibition of Staphylococcus aureus (optical density); settings: 1000 μM DHB, 530 nm, 48 h shaking at 30° C.; control 2.1
Method: (§1) Growth inhibition of M. globosa, M. restricta, Propionibacterium acnes, Staphylococcus aureus and Staphylococcus epidermidis was tested using 50-ml tubes with 10 ml of mDixon medium. Cultures were inoculated to an optical density (OD) of 0.2, the above microorganisms were loaded into each culture dish, and challenged with test material (control and DHB with different concentrations: 0.001 μM, 0.01 μM, 0.1 μM, 1 μm, 10 μM, 100 μM and 1000 μM). After 48 h of shaking at 30° C., the OD was measured by spectrophotometer and recorded.

[1] = test system: Staphylococcus epidermidis; assay: Growth inhibition of Staphylococcus epidermidis (optical density); settings: 1000 μM DHB, 530 nm, 48 h shaking at 30° C.; control 1.8
Method: as §1

Propionibacterium acnes = assay: Growth inhibition of Propionibacterium acnes (optical density); settings: 1000 μM DHB, 530 nm, 48 h shaking at 30° C.; control 2.6
Method: as §1

M. globosa = assay: Growth inhibition of M. globosa (optical density); settings: 1000 μM DHB, 600 nm, 48 h shaking at 30° C., mDixon medium; control 4.1
Method: as §1

M. restricta = assay: Growth inhibition of M. restricta (optical density); settings: 1000 μM DHB, 600 nm, 48 h shaking at 30° C., mDixon medium; control 6.5
Method: as §1

COc1ccc2c(c1OC)CN1CCc3cc4c(cc3C1=C2)OCO4 [DHB, Dihydroberberine]
optical density of Staphylococcus aureus (Staphylococcus aureus): 0.3
optical density of Staphylococcus epidermidis [1]: 0.3
optical density of Propionibacterium acnes (Propionibacterium acnes): 0.9
optical density of M. globosa (M. globosa): 0.2
optical density of M. restricta (M. restricta): 1.1
